Like-named read-outs stand apart in the source and are kept apart here.

Series [1] can be described thus: Measuring pharmacokinetics parameters in rats after intragastric administration. The series is classed as in vivo. Particulars: male, plasma; rat, PO, 5 mg/kg, 20% sulfobutyl-β-cyclodextrin. How it is done:
The pharmacokinetic parameters of compounds of the present application were determined by using the following method.
Healthy male adult rats (7-9 weeks old) were used in this study. Each group of animals (3 male rats) was intragastrically administered once at a single dose of 5 mg/kg. The animals in the intragastric administration group were fasted overnight before this study. The fasting time period was from 10 hours before administration to 4 hours after administration.
Blood samples were taken at 0.25, 0.5, 1, 2, 4, 6, 8 and 24 h after administration. The animals were anesthetized with isoflurane using an animal anesthesia machine, and then 0.3 mL whole blood samples were taken from the fundus venous plexus. The blood samples were placed in heparin anticoagulant tubes, and centrifuged for 5 min at 4° C. and 4000 rpm. The resulting plasmas were transferred to centrifuge tubes, and stored at −80° C. until analysis.
Verified LC-MS/MS method was used to analyze the plasma samples. Plasma concentration-time data of animals were analyzed using WinNonlin (Professional Edition, version 6.3; Pharsight Company) software. The non-compartmental model was introduced for concentration analysis.

The nature of series [2]: Liver microsome metabolic stability (rat). The series is classed as in vitro ADME. Particulars: rat liver microsomes, read-out: Half Life t1/2, liver microsome metabolic stability (converted). How it is done: (§1) 8 μL human liver microsomes (20 mg/mL), 20 μL NADPH and 368 μL of 0.1 M phosphate buffer were mixed, and then pre-incubated at 37° C. for 5 minutes. 4 μL working solutions (test compounds or positive control) were added, respectively. When pre-incubated at 37° C., 50 μL incubation solutions were taken out at 0, 10, 20, 30, 45 and 60 minute, and thereto was added a 150 μL solution of internal standard ([…]) in acetonitrile. 4 μL rat liver microsomes (20 mg/mL), 10 μL NADPH and 184 μL of 0.1 M phosphate buffer were mixed, and then pre-incubated at 37° C. for 5 minutes. 2 μL working solutions (test compounds or positive control) were added, respectively. When pre-incubated at 37° C., 20 μL incubation solutions were taken out at 0, 10, 20, 30, 45 and 60 minute, and thereto was added a 180 μL solution of internal standard (0.25 M warfarin) in acetonitrile. All samples were vortexed and centrifuged at 4000 rpm for 15 min, and 150 μL supernatants were added to a 96-well plate, and then 5 μL supernatants were detected in LC/MS/MS system. Chromatographic column for analysis was C18 1.7 μm 2.1×50 mm (Waters). Triple quadrupole mass spectrometry (API4000, AB Company) was used in detection. A ratio of the peak area of CT-1225 to that of the internal standard was detected in positive ion mode. […]

Series [3] in a line: Liver microsome metabolic stability (human). The series is classed as in vitro ADME. Particulars: human liver microsomes, read-out: Half Life t1/2, liver microsome metabolic stability (converted). How it is done:
as §1
Background: Liver microsomes are a subcellular fraction often used to study metabolism.

The next series concerns the target CYP2D6 (Homo sapiens (Human), UniProt P10635). Description: biochemical. In kind it is in vitro ADME. Particulars: human liver microsomes; read-out: IC50 in inhibiting CYP Enzyme System 2D6. How it is done: (§2) IC50 values of compounds of the present application in inhibiting CYP enzyme system were determined by using the following method.
Human liver microsomes frozen at −80° C. in refrigerator were placed on ice for thawing, of which 100 μL was placed in a constant temperature oscillator for incubation (1 hour) at 60° C. and 100 rpm when immediately thawing, and the rest was frozen immediately in refrigerator at −80° C. After one hour, 100 μL inactivated liver microsomes were taken out, and thereto was added 400 μL phosphate buffer, and uniformly mixed to form a 4 mg/mL solution of inactivated liver microsomes. Meanwhile, human liver microsomes frozen at −80° C. in refrigerator were placed on ice for thawing, of which 100 μL was taken out when immediately thawing, and thereto was added 400 μL phosphate buffer, and uniformly mixed to form a 4 mg/mL solution of liver microsomes. The incubation mixtures for a positive control, test compounds and a negative control were prepared according to Table 3 below: […]
(§3) Analyst 1.4.2 or equivalent software was used for data processing. Integrals were detected to ensure that all peaks were properly integrated, and if necessary, adjust integral parameters.
(§4) The quantification of an analyte was defined as a ratio of a peak area of the analyte to that of the internal standard.

The target in the next series is CYP2C8 (Homo sapiens (Human), UniProt P10632). Description: IC50 of inhibiting CYP enzyme system, human liver microsomes. The series is classed as in vitro ADME. Particulars: read-out: IC50 in inhibiting CYP Enzyme System 2C8. How it is done:
as §2
(§5) Human liver microsomes frozen at −80° C. in refrigerator were placed on ice for thawing, of which 100 μL was placed in a constant temperature oscillator for incubation (1 hour) at 60° C. and 100 rpm when immediately thawing, and the rest was frozen immediately in refrigerator at −80° C. After one hour, 100 μL inactivated liver microsomes were taken out, and thereto was added 400 μL phosphate buffer, and uniformly mixed to form a 4 mg/mL solution of inactivated liver microsomes. Meanwhile, human liver microsomes frozen at −80° C. in refrigerator were placed on ice for thawing, of which 100 μL was taken out when immediately thawing, and thereto was added 400 μL phosphate buffer, and uniformly mixed to form a 4 mg/mL solution of liver microsomes. The incubation mixtures for a positive control, test compounds and a negative control were prepared according to Table 3 below:
(§6) The above incubation mixtures were incubated for 5 minutes in a constant temperature oscillator at 37° C. and 100 rpm.
(§7) To 2.5 μL working solution of the test compounds or positive control (the negative control was added to the working solution of the test compounds) were added 91.5 μL the incubation mixtures and 6 μL NADPH solution, and then the reaction was initiated via vortex. The resulting solutions were incubated in a constant temperature oscillator at 37° C. and 100 rpm, and the incubation time was shown in Table 4 below:
(§8) Samples from the terminated reaction were centrifuged at 12000 rpm for 10 minutes, and supernatants were taken out for analysis.
as §3, §4

For the next series, the target named is CYP3A4 (Homo sapiens (Human), UniProt P08684). Described as above. In kind it is in vitro ADME. How it is done: as §2, §5, §6, §7, §8, §3, §4
Chain of CYP3A4 (P08684 whole entry): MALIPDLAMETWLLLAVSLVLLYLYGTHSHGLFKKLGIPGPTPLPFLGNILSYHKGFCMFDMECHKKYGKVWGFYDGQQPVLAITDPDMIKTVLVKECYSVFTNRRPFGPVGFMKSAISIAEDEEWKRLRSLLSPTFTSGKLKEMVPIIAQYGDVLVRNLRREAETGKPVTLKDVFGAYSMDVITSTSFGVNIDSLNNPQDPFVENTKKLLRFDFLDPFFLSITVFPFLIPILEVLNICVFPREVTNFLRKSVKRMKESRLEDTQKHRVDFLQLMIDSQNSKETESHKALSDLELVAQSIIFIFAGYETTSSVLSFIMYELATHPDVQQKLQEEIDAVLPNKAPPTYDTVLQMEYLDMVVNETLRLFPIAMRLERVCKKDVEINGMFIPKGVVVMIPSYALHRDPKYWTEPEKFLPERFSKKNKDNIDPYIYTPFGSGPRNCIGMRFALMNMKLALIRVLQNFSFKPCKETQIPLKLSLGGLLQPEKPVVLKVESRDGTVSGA
The next series addresses CYP1A2 (Homo sapiens (Human), UniProt P05177). The description is as above. The series is classed as in vitro ADME. Particulars: read-out: IC50 in inhibiting CYP Enzyme System 1A2. How it is done:
as §2, §5, §6, §7, §8, §3, §4

The target in a further series is CYP2C19 (Homo sapiens (Human), UniProt P33261). The description is as above. The series is classed as in vitro ADME. Particulars: read-out: IC50 in inhibiting CYP Enzyme System 2C19. How it is done:
as §2, §5, §6, §7, §8, §3, §4

A further series concerns the target CYP2C9 (Homo sapiens (Human), UniProt P11712). The series is described as above. In kind it is in vitro ADME. Particulars: read-out: IC50 in inhibiting CYP Enzyme System 2C9. How it is done:
as §2, §5, §6, §7, §8, §3, §4

The target of a further series is CYP2B6 (Homo sapiens (Human), UniProt P20813). The series is described as above. Particulars: read-out: IC50 in inhibiting CYP Enzyme System 2B6. In kind it is in vitro ADME. How it is done:
as §2, §5, §6, §7, §8, §3, §4

In a further series the target is serum DPP-IV (Mus musculus (Mouse), UniProt P28843). Description: in vivo. Particulars: for response vs control in vivo at 30 mg/kg: po, read-out: Specific activity of DPP-IV.
Chain of serum DPP-IV (P28843 37-760): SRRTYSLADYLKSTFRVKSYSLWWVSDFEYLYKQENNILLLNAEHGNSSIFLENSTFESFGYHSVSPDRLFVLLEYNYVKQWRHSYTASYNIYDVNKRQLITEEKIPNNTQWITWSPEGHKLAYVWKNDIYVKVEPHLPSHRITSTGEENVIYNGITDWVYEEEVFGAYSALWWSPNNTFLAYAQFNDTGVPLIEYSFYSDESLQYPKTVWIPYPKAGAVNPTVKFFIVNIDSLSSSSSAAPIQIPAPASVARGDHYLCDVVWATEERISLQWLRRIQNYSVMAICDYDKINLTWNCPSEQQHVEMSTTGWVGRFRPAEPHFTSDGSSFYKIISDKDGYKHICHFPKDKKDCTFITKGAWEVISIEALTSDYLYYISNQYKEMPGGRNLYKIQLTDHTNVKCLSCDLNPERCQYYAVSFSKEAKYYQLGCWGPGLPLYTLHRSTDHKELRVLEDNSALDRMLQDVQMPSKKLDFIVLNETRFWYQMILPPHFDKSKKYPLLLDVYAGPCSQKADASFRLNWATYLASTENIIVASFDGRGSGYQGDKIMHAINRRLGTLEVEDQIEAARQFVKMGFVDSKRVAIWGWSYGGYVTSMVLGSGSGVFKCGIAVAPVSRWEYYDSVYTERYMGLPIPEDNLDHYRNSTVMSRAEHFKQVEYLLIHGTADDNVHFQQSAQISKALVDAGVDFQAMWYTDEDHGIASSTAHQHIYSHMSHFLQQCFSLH

Chain of CYP2C8 (P10632 whole entry): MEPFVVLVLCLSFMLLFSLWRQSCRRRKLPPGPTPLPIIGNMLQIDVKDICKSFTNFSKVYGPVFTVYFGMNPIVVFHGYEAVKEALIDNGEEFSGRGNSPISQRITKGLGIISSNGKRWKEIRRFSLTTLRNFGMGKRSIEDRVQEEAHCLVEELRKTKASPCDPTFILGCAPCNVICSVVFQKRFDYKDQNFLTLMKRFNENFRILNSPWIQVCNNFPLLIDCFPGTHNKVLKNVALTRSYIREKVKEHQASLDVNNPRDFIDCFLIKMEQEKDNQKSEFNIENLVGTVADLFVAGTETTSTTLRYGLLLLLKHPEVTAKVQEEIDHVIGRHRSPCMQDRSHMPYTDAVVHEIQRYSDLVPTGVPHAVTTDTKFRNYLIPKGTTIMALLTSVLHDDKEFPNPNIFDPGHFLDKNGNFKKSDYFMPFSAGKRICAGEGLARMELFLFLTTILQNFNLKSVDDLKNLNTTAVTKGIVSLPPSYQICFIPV
Chain of CYP1A2 (P05177 whole entry): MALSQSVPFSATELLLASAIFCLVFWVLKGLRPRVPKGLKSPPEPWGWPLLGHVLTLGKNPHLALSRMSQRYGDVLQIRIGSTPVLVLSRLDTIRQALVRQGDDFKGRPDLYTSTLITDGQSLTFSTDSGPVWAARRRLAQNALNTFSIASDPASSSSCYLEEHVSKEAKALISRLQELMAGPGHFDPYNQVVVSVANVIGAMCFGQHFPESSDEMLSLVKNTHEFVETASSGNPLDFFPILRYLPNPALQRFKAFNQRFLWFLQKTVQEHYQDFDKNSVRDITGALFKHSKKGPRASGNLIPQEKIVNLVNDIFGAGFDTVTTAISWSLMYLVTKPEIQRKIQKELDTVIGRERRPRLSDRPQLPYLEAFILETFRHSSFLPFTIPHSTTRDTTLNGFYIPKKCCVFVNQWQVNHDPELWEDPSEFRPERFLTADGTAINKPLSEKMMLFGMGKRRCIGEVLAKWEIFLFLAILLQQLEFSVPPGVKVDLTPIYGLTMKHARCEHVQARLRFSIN
Chain of CYP2C9 (P11712 whole entry): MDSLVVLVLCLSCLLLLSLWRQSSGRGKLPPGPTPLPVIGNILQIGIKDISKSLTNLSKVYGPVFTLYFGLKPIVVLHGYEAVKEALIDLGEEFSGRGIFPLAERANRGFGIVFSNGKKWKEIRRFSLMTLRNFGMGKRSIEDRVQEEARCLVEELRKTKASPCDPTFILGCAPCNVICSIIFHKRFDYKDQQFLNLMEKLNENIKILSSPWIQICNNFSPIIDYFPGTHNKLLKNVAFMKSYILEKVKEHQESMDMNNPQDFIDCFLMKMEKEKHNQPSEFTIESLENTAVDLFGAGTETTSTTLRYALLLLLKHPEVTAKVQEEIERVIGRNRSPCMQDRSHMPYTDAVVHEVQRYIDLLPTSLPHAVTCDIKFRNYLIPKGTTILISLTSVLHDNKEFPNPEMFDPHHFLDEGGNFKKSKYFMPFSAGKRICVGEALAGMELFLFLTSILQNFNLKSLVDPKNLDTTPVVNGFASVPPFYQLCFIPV
Chain of CYP2D6 (P10635 whole entry): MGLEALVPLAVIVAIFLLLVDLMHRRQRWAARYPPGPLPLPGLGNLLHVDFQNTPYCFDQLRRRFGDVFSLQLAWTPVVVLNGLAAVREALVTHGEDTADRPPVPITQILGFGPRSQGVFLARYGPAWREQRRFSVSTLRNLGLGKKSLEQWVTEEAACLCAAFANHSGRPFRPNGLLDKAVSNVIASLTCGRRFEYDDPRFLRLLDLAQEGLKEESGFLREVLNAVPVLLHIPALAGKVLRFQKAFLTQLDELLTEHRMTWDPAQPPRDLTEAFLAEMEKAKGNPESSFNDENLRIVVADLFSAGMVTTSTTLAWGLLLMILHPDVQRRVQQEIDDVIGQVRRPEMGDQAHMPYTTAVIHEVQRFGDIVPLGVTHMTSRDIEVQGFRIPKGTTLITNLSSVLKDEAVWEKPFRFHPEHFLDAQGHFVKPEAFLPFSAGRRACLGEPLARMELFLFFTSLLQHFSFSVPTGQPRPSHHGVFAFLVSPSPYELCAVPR
Chain of CYP2C19 (P33261 whole entry): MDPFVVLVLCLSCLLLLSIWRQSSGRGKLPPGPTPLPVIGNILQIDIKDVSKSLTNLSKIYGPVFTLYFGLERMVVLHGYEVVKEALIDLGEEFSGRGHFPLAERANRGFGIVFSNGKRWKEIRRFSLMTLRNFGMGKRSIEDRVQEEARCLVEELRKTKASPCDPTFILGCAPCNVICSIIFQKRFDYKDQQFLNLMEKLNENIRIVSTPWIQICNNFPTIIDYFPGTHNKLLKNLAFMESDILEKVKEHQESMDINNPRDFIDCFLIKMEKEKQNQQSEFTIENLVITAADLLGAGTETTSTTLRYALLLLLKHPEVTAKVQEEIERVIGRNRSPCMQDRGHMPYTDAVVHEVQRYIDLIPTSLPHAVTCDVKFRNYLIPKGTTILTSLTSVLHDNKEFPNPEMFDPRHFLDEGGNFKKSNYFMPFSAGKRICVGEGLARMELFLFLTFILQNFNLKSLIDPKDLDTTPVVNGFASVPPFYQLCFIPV
Chain of CYP2B6 (P20813 whole entry): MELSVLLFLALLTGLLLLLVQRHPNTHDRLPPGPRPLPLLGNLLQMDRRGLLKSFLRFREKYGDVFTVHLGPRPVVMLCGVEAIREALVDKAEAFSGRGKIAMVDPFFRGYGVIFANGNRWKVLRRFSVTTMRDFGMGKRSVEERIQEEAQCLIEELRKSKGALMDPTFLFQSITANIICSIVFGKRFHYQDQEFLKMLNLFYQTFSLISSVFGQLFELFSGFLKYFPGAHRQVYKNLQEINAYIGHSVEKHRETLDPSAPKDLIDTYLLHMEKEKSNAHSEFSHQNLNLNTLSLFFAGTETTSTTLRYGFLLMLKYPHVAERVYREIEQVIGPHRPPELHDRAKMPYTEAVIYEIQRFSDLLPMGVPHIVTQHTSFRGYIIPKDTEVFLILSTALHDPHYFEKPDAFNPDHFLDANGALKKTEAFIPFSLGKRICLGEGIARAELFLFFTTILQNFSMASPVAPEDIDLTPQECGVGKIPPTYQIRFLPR

Take `N[C@H]1C[C@@H](N2Cc3ccc(S(=O)(=O)C4CC4)cc3C2)CO[C@@H]1c1cc(F)ccc1F` [Example 9, (2R,3S,5R)-5-(5-cyclopropylsulfonylisoindolin-2-yl)-2-(2,5-difluorophenyl) tetrahydro-2H-pyran-3-amine]: in series [1], the AUC(0-inf) stood at 52200 ng·h/mL, the peak level (Cmax) was 5960 ng/mL, the time of peak concentration (Tmax) came to 2 h and the half-life was 32.5 h.

For the compound `CS(=O)(=O)c1ccc2c(c1)CN([C@H]1CO[C@H](c3cc(F)ccc3F)[C@@H](N)C1)C2` [Example 4, (2R,3S,5R)-5-(5-methylsulfonylisoindolin-2-yl)-2-(2,5-difluorophenyl)tetrahydro-2H-pyran-3-amine], the AUC(0-inf) in series [1] was 45600 ng·h/mL. Further, the maximum concentration (Cmax) in series [1] worked out at 4390 ng/mL. Further, in [1], the time of peak concentration (Tmax) worked out at 1.67 h. Also, the half-life in series [1] was 17.1 h; in series [2], 8.26 h; in series [3] it was 4.52 h. Besides, the concentration for half-maximal inhibition (IC50) at CYP2D6 was over 25 µM; on CYP2C8 it was over 25 µM; at CYP3A4 (substrate Midazolam, read-out: IC50 in inhibiting CYP Enzyme System 3A4_Mid) it was over 25 µM; on CYP3A4 (substrate Testosterone, read-out: IC50 in inhibiting CYP Enzyme System 3A4_Tes), over 25 µM; at CYP1A2, over 25 µM; at CYP2C19 it was over 25 µM. Further, the 50% inhibitory concentration (IC50) on CYP2C9 and on CYP2B6 was over 25 µM each time.

Take `CS(=O)(=O)n1cc2c(n1)CN([C@H]1CO[C@H](c3cc(F)ccc3F)[C@@H](N)C1)C2` [Omarigliptin]: the half-life in series [2] is 21.1 h; in series [3], 4.09 h. Further, the response vs control in vivo at 30 mg/kg at serum DPP-IV (2 h) worked out at 8.4%; at serum DPP-IV (4 h) it was 7.4%; at serum DPP-IV (10 h) it was 9.1%; at serum DPP-IV (24 h), 15.6%; on serum DPP-IV (34 h) it was 20.2%; on serum DPP-IV (48 h), 45.5%. Further, the results for the response vs control in vivo at 30 mg/kg on serum DPP-IV (58 h), at serum DPP-IV (72 h) and on serum DPP-IV (96 h) were 41.2%, 58.4% and 68%, respectively. The inhibition at 30 mg/kg on serum DPP-IV (read-out: inhibitory rate of serum DPP-IV activity in mice) was over 70%.

The AUC(0-inf) is the area under the concentration-time curve extrapolated to infinity. One may read the Cmax as the highest concentration seen after dosing. For orientation: Tmax means the time at which the peak concentration occurs. As a reminder, the IC50 is the concentration that gives 50% inhibition.

(Values after patent US10155775B2, “Substituted amino six-membered saturated heteroalicycles as long-acting DPP-IV inhibitors” (Centaurus Biopharma Co., Ltd., priority 2015, dated 2018).)
